Key:
Conditions in all cases: Compound concentration 10 µM
[1] = molecular target: Sigma non-opioid intracellular receptor 1 (Homo sapiens) (UniProt Q99720)
Description: PDSP Primary Binding target: SIGMAR1 - Compounds are tested at 10 uM concentration, plate are incubated at room temperature in the dark for 90 minutes. Reaction are stopped by vacuum filtration onto 0.3% polyethyleneimine soaked filter mats using Filtermate harvester. Scintilation cocktail is then melted onto microwave-dried filters on a hot plate and the radio activity is counted in Microbia counter.

[2] = molecular target: T1, 5-hydroxytryptamine receptor 1A (Homo sapiens) (UniProt P08908)
T1 sequence (whole entry): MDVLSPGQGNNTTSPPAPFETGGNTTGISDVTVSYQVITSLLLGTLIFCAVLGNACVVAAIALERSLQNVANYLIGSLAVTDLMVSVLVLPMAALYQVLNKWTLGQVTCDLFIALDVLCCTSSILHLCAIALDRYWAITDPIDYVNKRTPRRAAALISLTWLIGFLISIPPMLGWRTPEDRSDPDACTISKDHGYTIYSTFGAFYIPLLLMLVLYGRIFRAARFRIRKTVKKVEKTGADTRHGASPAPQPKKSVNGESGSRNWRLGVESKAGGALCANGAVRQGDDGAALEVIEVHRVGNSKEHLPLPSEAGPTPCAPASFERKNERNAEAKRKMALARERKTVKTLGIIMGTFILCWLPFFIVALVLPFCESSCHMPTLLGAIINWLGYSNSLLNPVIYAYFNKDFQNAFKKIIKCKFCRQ
Description: PDSP Primary Binding target: HTR1A - Compounds are tested at 10 uM concentration, plate are incubated at room temperature in the dark for 90 minutes. Reaction are stopped by vacuum filtration onto 0.3% polyethyleneimine soaked filter mats using Filtermate harvester. Scintilation cocktail is then melted onto microwave-dried filters on a hot plate and the radio activity is counted in Microbia counter.

[3] = molecular target: T2, Alpha-2B adrenergic receptor (Homo sapiens) (UniProt P18089)
T2 sequence (whole entry): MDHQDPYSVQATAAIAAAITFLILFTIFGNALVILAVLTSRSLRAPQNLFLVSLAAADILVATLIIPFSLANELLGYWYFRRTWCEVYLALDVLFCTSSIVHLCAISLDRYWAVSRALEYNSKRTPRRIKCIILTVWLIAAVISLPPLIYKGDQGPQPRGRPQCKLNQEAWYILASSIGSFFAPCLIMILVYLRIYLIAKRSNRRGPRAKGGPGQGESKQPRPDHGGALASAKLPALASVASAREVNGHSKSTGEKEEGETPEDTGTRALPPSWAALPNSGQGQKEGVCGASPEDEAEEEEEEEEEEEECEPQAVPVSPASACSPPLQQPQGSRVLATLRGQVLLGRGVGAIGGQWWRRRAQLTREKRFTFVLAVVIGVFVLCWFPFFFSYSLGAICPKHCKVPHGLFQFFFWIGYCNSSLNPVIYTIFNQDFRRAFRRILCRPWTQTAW
Description: PDSP Primary Binding target: ADRA2B - Compounds are tested at 10 uM concentration, plate are incubated at room temperature in the dark for 90 minutes. Reaction are stopped by vacuum filtration onto 0.3% polyethyleneimine soaked filter mats using Filtermate harvester. Scintilation cocktail is then melted onto microwave-dried filters on a hot plate and the radio activity is counted in Microbia counter.

[4] = molecular target: Kappa-type opioid receptor (Homo sapiens) (UniProt P41145)
Sequence of Kappa-type opioid receptor (Homo sapiens) (P41145 whole entry): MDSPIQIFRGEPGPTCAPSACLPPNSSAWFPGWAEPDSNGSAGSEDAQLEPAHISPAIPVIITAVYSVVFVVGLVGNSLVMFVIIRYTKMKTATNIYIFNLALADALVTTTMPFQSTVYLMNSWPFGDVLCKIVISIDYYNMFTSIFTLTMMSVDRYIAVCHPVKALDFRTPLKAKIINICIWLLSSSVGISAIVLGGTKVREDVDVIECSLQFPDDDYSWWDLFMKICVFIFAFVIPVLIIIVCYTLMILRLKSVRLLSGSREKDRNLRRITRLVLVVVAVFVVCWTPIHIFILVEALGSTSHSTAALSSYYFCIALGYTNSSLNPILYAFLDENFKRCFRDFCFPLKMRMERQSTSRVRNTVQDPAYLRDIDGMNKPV
Description: PDSP Primary Binding target: OPRK1 - Compounds are tested at 10 uM concentration, plate are incubated at room temperature in the dark for 90 minutes. Reaction are stopped by vacuum filtration onto 0.3% polyethyleneimine soaked filter mats using Filtermate harvester. Scintilation cocktail is then melted onto microwave-dried filters on a hot plate and the radio activity is counted in Microbia counter.

[5] = molecular target: 5-hydroxytryptamine receptor 5A (Homo sapiens) (UniProt P47898)
Sequence of 5-hydroxytryptamine receptor 5A (Homo sapiens) (P47898 whole entry): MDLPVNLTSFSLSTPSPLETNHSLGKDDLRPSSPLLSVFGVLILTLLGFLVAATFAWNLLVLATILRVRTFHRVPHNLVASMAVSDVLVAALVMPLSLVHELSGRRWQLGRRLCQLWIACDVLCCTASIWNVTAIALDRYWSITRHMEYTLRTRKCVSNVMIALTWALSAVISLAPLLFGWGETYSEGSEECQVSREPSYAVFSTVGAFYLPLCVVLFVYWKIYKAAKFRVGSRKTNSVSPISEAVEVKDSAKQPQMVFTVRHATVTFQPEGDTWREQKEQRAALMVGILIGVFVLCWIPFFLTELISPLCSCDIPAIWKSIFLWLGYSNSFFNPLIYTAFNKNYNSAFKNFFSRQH
Description: PDSP Primary Binding target: HTR5A - Compounds are tested at 10 uM concentration, plate are incubated at room temperature in the dark for 90 minutes. Reaction are stopped by vacuum filtration onto 0.3% polyethyleneimine soaked filter mats using Filtermate harvester. Scintilation cocktail is then melted onto microwave-dried filters on a hot plate and the radio activity is counted in Microbia counter.

[6] = molecular target: 5-hydroxytryptamine receptor 2B (Homo sapiens) (UniProt P41595)
Sequence of 5-hydroxytryptamine receptor 2B (Homo sapiens) (P41595 whole entry): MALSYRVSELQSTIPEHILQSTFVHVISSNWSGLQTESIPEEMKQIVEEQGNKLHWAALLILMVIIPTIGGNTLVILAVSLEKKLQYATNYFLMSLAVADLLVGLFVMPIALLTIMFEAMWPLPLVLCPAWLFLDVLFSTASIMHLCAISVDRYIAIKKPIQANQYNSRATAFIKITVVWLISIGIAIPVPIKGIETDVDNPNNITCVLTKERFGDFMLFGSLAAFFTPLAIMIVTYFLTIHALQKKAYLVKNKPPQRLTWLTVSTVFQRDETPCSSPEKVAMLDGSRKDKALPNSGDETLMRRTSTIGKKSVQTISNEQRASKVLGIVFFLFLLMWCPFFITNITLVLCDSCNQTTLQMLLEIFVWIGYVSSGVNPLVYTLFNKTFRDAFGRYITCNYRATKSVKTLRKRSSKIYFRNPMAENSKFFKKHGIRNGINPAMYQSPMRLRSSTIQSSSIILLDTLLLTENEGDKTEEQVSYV
Description: PDSP Primary Binding target: HTR2B - Compounds are tested at 10 uM concentration, plate are incubated at room temperature in the dark for 90 minutes. Reaction are stopped by vacuum filtration onto 0.3% polyethyleneimine soaked filter mats using Filtermate harvester. Scintilation cocktail is then melted onto microwave-dried filters on a hot plate and the radio activity is counted in Microbia counter.

[7] = molecular target: D(3) dopamine receptor (Homo sapiens) (UniProt P35462)
Sequence of D(3) dopamine receptor (Homo sapiens) (P35462 whole entry): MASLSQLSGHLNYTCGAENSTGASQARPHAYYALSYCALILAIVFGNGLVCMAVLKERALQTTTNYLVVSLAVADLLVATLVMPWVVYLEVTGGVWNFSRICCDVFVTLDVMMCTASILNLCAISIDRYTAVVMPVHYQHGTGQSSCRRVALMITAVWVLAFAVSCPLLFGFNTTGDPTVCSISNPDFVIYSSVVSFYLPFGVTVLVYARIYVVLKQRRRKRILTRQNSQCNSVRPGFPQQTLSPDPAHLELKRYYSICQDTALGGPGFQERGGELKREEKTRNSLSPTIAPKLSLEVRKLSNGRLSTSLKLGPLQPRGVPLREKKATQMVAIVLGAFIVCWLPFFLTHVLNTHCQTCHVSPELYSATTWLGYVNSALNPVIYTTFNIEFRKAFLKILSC
Description: PDSP Primary Binding target: DRD3 - Compounds are tested at 10 uM concentration, plate are incubated at room temperature in the dark for 90 minutes. Reaction are stopped by vacuum filtration onto 0.3% polyethyleneimine soaked filter mats using Filtermate harvester. Scintilation cocktail is then melted onto microwave-dried filters on a hot plate and the radio activity is counted in Microbia counter.

[8] = molecular target: T3, 5-hydroxytryptamine receptor 3A (Homo sapiens) (UniProt P46098)
T3 sequence (whole entry): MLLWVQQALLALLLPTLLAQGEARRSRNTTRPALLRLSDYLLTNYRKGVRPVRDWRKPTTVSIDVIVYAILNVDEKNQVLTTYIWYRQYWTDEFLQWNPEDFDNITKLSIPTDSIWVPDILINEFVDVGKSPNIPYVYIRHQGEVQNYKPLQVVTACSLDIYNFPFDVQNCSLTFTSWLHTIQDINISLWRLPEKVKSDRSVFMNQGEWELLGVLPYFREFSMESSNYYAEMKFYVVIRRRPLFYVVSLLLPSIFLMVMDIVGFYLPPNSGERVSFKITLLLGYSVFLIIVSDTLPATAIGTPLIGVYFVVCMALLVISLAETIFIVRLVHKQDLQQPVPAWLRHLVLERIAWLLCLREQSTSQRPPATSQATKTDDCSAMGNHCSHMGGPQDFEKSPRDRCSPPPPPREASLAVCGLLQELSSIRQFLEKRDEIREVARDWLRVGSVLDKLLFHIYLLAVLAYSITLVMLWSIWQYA
Description: PDSP Primary Binding target: HTR3A - Compounds are tested at 10 uM concentration, plate are incubated at room temperature in the dark for 90 minutes. Reaction are stopped by vacuum filtration onto 0.3% polyethyleneimine soaked filter mats using Filtermate harvester. Scintilation cocktail is then melted onto microwave-dried filters on a hot plate and the radio activity is counted in Microbia counter.

[9] = molecular target: T4, 5-hydroxytryptamine receptor 2C (Homo sapiens) (UniProt P28335)
T4 sequence (whole entry): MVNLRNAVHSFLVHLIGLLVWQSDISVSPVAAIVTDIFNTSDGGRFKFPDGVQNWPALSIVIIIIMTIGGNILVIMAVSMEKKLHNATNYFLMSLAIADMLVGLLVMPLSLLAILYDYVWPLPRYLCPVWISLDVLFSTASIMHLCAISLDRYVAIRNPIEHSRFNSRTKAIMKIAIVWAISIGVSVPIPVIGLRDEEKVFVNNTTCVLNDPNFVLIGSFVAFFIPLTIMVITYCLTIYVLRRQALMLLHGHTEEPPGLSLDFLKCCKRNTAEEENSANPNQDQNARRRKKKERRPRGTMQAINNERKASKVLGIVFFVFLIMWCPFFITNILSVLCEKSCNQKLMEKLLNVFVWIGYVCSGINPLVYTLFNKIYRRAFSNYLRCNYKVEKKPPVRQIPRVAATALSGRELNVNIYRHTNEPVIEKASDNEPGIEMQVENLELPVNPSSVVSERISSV
Description: PDSP Primary Binding target: HTR2C - Compounds are tested at 10 uM concentration, plate are incubated at room temperature in the dark for 90 minutes. Reaction are stopped by vacuum filtration onto 0.3% polyethyleneimine soaked filter mats using Filtermate harvester. Scintilation cocktail is then melted onto microwave-dried filters on a hot plate and the radio activity is counted in Microbia counter.

Measured: inhibition

Sequence of Sigma non-opioid intracellular receptor 1 (Homo sapiens) (Q99720 whole entry): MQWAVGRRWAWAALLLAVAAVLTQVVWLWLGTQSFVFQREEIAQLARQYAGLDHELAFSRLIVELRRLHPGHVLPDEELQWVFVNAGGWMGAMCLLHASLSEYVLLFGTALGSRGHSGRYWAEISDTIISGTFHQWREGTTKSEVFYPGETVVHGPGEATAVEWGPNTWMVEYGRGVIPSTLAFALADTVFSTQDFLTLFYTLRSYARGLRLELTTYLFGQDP

CN(C(=O)Cc1ccc(Cl)c(Cl)c1)C(CN1CCCC1)c1cccc(OCC(=O)O)c1 (stereo not drawn)
inactive: [1] 24.1% | [2] 24.9% | [3] 5.65% | [5] 1.89% | [6] 14.7% | [7] 3.88% | [8] 7.24%
active: [4] 100%

C[C@H](CO)Nc1nc(SCc2cccc(Cl)c2F)nc2[nH]c(=O)sc12
inactive: [1] 15.8% | [2] 6.98% | [4] 11% | [5] 7.09% | [6] -6.11% | [7] 13.7% | [9] 15%

CC(C)NCC(O)c1ccc(N)c(C#N)c1 (stereo not drawn)
inactive: [1] 22.7% | [2] 37.6% | [4] 9.69% | [7] -2.07% | [9] -7.04%

CCCCN(CC)c1nc(C)nc2c1c(C)cn2-c1c(C)cc(C)cc1C
inactive: [1] 28.8% | [2] -6.24% | [3] 39.7% | [4] 43.2% | [6] 16.9% | [7] 18.6% | [9] -7.17% | [8] -1.19%

CCCCN(CCCC)C(=O)CN1C[C@@H](c2ccc3c(c2)OCO3)[C@H](C(=O)O)[C@H]1c1ccc(OC)cc1
inactive: [2] -4.59% | [3] 2.24% | [4] 27.6% | [6] -9.25% | [7] 28.4% | [8] 2.68%
active: [1] 59.9%

CC(C)C[C@H](NC(=O)N1CCCCCC1)C(=O)N[C@H](Cc1cn(C)c2ccccc12)C(=O)N[C@H](Cc1ccccn1)C(=O)O
inactive: [1] 4.12% | [4] -7.75% | [6] 16% | [7] 22.6% | [8] -9.08%

Cc1cc(C)cc(C(=O)N(C)[C@H](Cc2ccc(-c3ccccc3)cc2)C(=O)N[C@@H](Cc2c[nH]c3ccccc23)C(=O)O)c1
inactive: [1] -6.1% | [2] 15.9% | [3] 7.27% | [4] 46.1% | [6] -6.62% | [7] 3.03%

Nc1nc(NCCc2ccc(O)cc2)nc2nc(-c3ccco3)nn12
active: [6] 84.3%
inactive: [1] 43.4% | [2] -6.94% | [3] -1.01% | [4] -5.28% | [7] 19.9% | [9] 8.15% | [8] 1.4%

COc1ccc(C2(O)OC(=O)C(c3ccc4c(c3)OCO4)=C2Cc2cc(OC)c(OC)c(OC)c2)cc1 (stereo not drawn)
inactive: [1] 6.35% | [2] 8.87% | [3] -2.96% | [4] 9.13% | [5] 4.51% | [7] -2.35%

CN(C)C(=O)C(CCN1CCC(O)(c2ccc(Cl)cc2)CC1)(c1ccccc1)c1ccccc1
active: [1] 87.2% | [6] 83.3%
inactive: [2] 41.4% | [5] 23.2% | [7] 42.1% | [9] 0.09%

CCCn1c(=O)c2[nH]c(-c3cnn(Cc4cccc(C(F)(F)F)c4)c3)nc2n(CC)c1=O
inactive: [1] 43.2% | [3] 11% | [4] -2.72% | [6] 35.7% | [8] -4.02%

C=CCN1C[C@H](C)N([C@H](c2ccc(C(=O)N(CC)CC)cc2)c2cccc(O)c2)C[C@H]1C
inactive: [3] 9.01% | [6] 30% | [7] 6.85% | [9] 0.93% | [8] 10%
active: [1] 87.3% | [4] 99.8%

CC(C)(C)NC[C@H](O)COc1nsnc1N1CCOCC1
active: [1] 90.3%
inactive: [2] 39.4% | [4] 3.37% | [6] 16.9% | [7] -0.36% | [9] -1.62%

COc1cc2c(CCNC(C)=O)c[nH]c2cc1Cl
active: [6] 57.2%
inactive: [1] 5.27% | [2] -4.64% | [3] 9.08% | [4] -6.29% | [9] 18.8%

Cc1cccc(NC(=O)N[C@@H]2N=C(c3ccccc3)c3ccccc3N(C)C2=O)c1
inactive: [1] 20.8% | [2] -9.64% | [3] 7.07% | [4] 22.5% | [7] 0.6% | [9] -0.72% | [8] -5.37%
active: [6] 63%

Reference: ChEMBL document CHEMBL5442219
